# Reference: US20170360912A1, “CHITOSAN-BASED HYDROGEL AND APPLICATIONS THEREOF” (priority 2014, published 2017)
# How the values were obtained:
# [1] = Doxycycline denaturation on mixing, spectrometry; assay type: physicochemical
# Source text: Addition of an anti-oxidant was however required for long term stability.
# [2] = Measurement of pH and osmolality (Example 2); assay type: physicochemical; settings: FIG. 8 panels A-C
# Experimental: After 24 hours of gelation at 37° C., each hydrogel was pressed and filtered in order to recover entrapped solution. The pH of the extracted liquids was measured at room temperature using a pH meter (UltraBasic pH-meter, Denver Instrument). The impact of GA concentration of gels prepared with culture medium (as detailed in Section 2.2.4) on the final osmolality of hydrogels was measured using an osmometer (Advanced® Micro Osmometer, Model 3300, Advanced Instruments Inc.).
# [3] = BGP pKa,2 at 25° C.; cited from earlier work
# [4] = system: endothelial-derived cells (EA.hy 926); settings: SHC 0.1M; cited from earlier work
drug stability on direct addition in the CH or GA solution [1],drug stability on addition in the CH-GA solution ([1]; room temperature),SMILES,slope of osmolality versus gelling agent concentration [2],pKa [3],damage on endothelial-derived cells [4]
drug denaturation,avoid drug denaturation,C[C@H]1c2cccc(O)c2C(=O)C2=C(O)[C@]3(O)C(=O)C(C(N)=O)=C(O)[C@@H](N(C)C)[C@@H]3[C@@H](O)[C@@H]21 [doxycycline],–,–,–
–,–,"O=C([O-])O.[Na+] [SHC, Sodium hydrogen carbonate]",1475,6.35,no damage
–,–,"O.O.O.O.O.O=P([O-])([O-])OC(CO)CO.[Na+].[Na+] [BGP, β-Glycerol phosphate disodium salt pentahydrate, reference compound]",1789,6.65,–
